Assays:
HCC = assay: Superfusion of isolated corpus cavernosum (human, HCC); assay type: cell-based
[1] = system: corpus cavernosum of the rabbit (RbCC); assay type: cell-based; conditions: for relaxation of RbCC in presence of ATP-dependent potassium channel blocker: blocker 10 μM (Glybenclamide, FIG. 4)
nociception by formalin = assay: Formalin-induced licking; assay type: in vivo, mice; conditions: naloxone 10 minutes before; acute and inflammatory phases, formalin 2.5% w/v
Procedure: Male Swiss mice varying from 25 to 35 g, were housed at 22° C.±2° C. under a 12 h light/12 h dark circle and with access to water and purina. The animals were acclimatized to the laboratory for at least 1 hour before testing and were used once throughout the experiments.
Mice were lightly anaesthetized, with exception of those used to analyze the first phase of fromalin-induced pain. The surface of the animals paws was injected with 20 μL of 2.5% w/v formalin. Two groups of mice (mice treated with T. catigua and control mice) were simultaneously observed over a period from 0 to 30 min after the formalin injection. The total time spent by the animal licking the injected paw was timed with a chronometer and was considered as an indicative of pain. The first phase of the nociceptive response normally occurred […] the formalin injection and the second phase was from 15 to 30 min after such induction. These phases represent the neurogenic and inflammatory responses, respectively. In order to avoid pharmacokinetic influences, different groups of animals were used to analyze each phase of the experiment. Alternatively, animals were pretreated with naloxone 10 min prior to the administration of compositions comprising an extract of T. catigua.

Question: With `O=[N+]([O-])OCC(CO[N+](=O)[O-])O[N+](=O)[O-]` [GTN, glyceryltrinitrate] as the compound, how does the “relaxation of HCC during L-NAME infusion” value (HCC; Ach 0.6 μM, GTN 1.3 μM, Cat 10-100 μL, 4 tissue strips from 2 donators) read?
Answer: not significantly affected

Question: And the “relaxation of RbCC in presence of tetrodotoxin” value [1]?
Answer: did not present any effect

Question: And the “relaxation of RbCC during L-NAME infusion” value ([1]; L-NAME 10 μM, FIG. 2, 6 experiments)?
Answer: not affected

Question: What about the “relaxation of RbCC in presence of atropine” value ([1]; atropine 1 μM, FIG. 3, 4 experiments) of the same compound?
Answer: did not present any effect

Question: And the “relaxation of RbCC in presence of ATP-dependent potassium channel blocker” value [1]?
Answer: without affecting

Question: `N=C(N)NCCC[C@H](N)C(=O)O` [L-arg, L-arginine] was tested. Which “RbCC tonus on subsequent infusion after L-NAME” value ([1]; L-arg 300 μM after L-NAME, FIG. 2) did it give?
Answer: reverted the enhanced tonus

Question: `CN1CC[C@]23c4c5ccc(O)c4O[C@H]2[C@@H](O)C=C[C@H]3[C@H]1C5` [morphine] was tested. Which “analgesic action after pretreatment with naloxone” value (nociception by formalin) did it give?
Answer: reverted

Question: Which results are given for `COC(=O)[C@@H](N)CCCNC(=N)N[N+](=O)[O-]` [L-NAME, N^m-nitro-L-arginine methyl ester]?
Answer: HCC tonus (HCC; infusion of L-NAME): enhanced the HCC tonus; basal tonus of RbCC ([1]; infusion of L-NAME 10 μM, FIG. 2): enhanced the basal tonus

Question: `CC1(C)Oc2ccc(C#N)cc2C(N2CCCC2=O)C1O` (stereo not shown) [CMK, cromakalim] was tested. Which “relaxation of RbCC in presence of ATP-dependent potassium channel blocker” value [1] did it give?
Answer: inhibited

— patent US6335039B1, “Pharmaceutical formulations comprising vegetal material selected from trichilia” (Laboratorio Catarinense S/A, priority 1997, dated 2002)
